From ChEMBL document CHEMBL5143537, “Quinazoline-based hydroxamic acid derivatives as dual histone methylation and deacetylation inhibitors for potential anticancer agents” (Bioorg Med Chem, 2022)
Calls of active or inactive are those of the source. The calls are words filed in the database; no cut-off is given here.

Experiments:
HepG2 [1] = experiment: Cell cycle arrest in human HepG2 cells assessed as accumulation at S phase at 5 uM measured after 48 hrs by propidium iodide staining based flow cytometry (reference value: 32.39%); type: functional
HepG2 [2] = experiment: Induction of apoptosis in human HepG2 cells assessed as necrotic cells at 1.25 uM measured after 48 hrs by Annexin V-FITC/propidium iodide staining based flow cytometry (reference value: 0%); type: functional
[3] = biological target: T1, Histone-lysine N-methyltransferase EHMT1 (Homo sapiens) (UniProt Q9H9B1); experiment: Inhibition of GLP in human HepG2 cells assessed as reduction in H3K9Me2 expression at 1.25 to 20 uM measured after 24 hrs by Western blot analysis; type: cell-based; settings: dose 1.25-20 µM
T1 sequence (whole entry): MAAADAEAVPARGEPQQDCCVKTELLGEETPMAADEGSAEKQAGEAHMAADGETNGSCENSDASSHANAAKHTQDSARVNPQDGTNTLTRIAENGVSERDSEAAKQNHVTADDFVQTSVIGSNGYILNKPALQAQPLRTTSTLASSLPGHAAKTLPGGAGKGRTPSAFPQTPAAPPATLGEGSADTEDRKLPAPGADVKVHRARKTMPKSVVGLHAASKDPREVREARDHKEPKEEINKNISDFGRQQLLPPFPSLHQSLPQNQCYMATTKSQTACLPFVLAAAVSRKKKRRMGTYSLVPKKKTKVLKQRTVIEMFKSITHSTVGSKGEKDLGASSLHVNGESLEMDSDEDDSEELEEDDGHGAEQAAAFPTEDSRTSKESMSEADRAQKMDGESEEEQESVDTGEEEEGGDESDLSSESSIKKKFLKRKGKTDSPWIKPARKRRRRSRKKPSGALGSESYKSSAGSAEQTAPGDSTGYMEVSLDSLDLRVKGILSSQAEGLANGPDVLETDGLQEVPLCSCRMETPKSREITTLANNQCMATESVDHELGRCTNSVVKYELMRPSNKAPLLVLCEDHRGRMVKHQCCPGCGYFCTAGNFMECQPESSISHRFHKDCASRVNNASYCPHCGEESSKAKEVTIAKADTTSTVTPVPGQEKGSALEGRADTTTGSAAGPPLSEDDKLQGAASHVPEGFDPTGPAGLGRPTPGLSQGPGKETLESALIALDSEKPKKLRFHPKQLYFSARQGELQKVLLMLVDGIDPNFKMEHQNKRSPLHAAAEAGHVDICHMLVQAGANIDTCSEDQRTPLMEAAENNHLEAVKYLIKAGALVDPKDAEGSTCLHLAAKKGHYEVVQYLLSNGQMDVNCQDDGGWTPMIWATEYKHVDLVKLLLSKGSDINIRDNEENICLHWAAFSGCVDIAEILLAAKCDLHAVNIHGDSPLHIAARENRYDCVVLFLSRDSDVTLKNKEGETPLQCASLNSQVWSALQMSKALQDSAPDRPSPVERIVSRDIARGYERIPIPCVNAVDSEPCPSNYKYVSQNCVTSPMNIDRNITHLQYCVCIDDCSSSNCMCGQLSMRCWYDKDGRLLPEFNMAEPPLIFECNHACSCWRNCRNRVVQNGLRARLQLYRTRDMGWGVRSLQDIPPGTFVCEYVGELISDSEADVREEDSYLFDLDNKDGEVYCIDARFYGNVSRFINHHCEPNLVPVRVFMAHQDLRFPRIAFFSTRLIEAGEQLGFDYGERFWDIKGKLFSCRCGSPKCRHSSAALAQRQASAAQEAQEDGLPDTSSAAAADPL

HepG2 [4] = experiment: Induction of apoptosis in human HepG2 cells assessed as early apoptotic cells at 5 uM measured after 48 hrs by Annexin V-FITC/propidium iodide staining based flow cytometry (reference value: 6.87%); type: functional
[5] = Metabolic stability in rat liver microsomes assessed as parent compound remaining at 1 uM measured after 30 mins by LC-MS/MS analysis; type: ADME, Microsome; settings: read-out: Stability
HepG2 [6] = experiment: Induction of apoptosis in human HepG2 cells assessed as viable cells at 10 uM measured after 48 hrs by Annexin V-FITC/propidium iodide staining based flow cytometry (reference value: 88.58%); type: functional; settings: read-out: Activity
HepG2 [7] = experiment: Antimigratory activity against human HepG2 cells measured after 24 hrs by wound healing assay; type: functional, cell-based; settings: dose 1.5-5 µM, DDE = dose-dependent effect
[8] = Cytotoxicity against human HL7702 cells measured after 72 hrs by MTT assay; settings: HL7702 (L02) cells
HepG2 [9] = experiment: Induction of apoptosis in human HepG2 cells assessed as viable cells at 20 uM measured after 48 hrs by Annexin V-FITC/propidium iodide staining based flow cytometry (reference value: 88.58%); type: functional; settings: read-out: Activity
HepG2 [10] = experiment: Induction of apoptosis in human HepG2 cells assessed as late apoptotic cells at 20 uM measured after 48 hrs by Annexin V-FITC/propidium iodide staining based flow cytometry (reference value: 4.55%); type: functional
HepG2 [11] = experiment: Induction of apoptosis in human HepG2 cells assessed as viable cells at 2.5 uM measured after 48 hrs by Annexin V-FITC/propidium iodide staining based flow cytometry (reference value: 88.58%); type: functional; settings: read-out: Activity
[12] = Effect on H3 expression in human HepG2 cells at 1.25 to 25 uM measured after 24 hrs by Western blot analysis; type: toxicity, cell-based; settings: hepg2, 24 h, dose 1.25-25 µM
HepG2 [13] = experiment: Induction of apoptosis in human HepG2 cells assessed as early apoptotic cells at 1.25 uM measured after 48 hrs by Annexin V-FITC/propidium iodide staining based flow cytometry (reference value: 6.87%); type: functional
HepG2 [14] = experiment: Induction of apoptosis in human HepG2 cells assessed as necrotic cells at 20 uM measured after 48 hrs by Annexin V-FITC/propidium iodide staining based flow cytometry (reference value: 0%); type: functional
[15] = biological target: Histone deacetylase (Homo sapiens) (UniProt Q13547+O15379+Q9UBN7+Q92769+Q9UQL6+Q8WUI4+Q9BY41+Q96DB2+P56524+Q9UKV0+Q969S8); experiment: Inhibition of HDAC in human HepG2 cells assessed as increase in Ac-H3K9 expression at 1.25 to 20 uM measured after 24 hrs by Western blot analysis; type: cell-based; settings: dose 1.25-20 µM
HepG2 [16] = experiment: Cell cycle arrest in human HepG2 cells assessed as accumulation at S phase at 2.5 uM measured after 48 hrs by propidium iodide staining based flow cytometry (reference value: 32.39%); type: functional
HepG2 [17] = experiment: Induction of apoptosis in human HepG2 cells assessed as viable cells at 1.25 uM measured after 48 hrs by Annexin V-FITC/propidium iodide staining based flow cytometry (reference value: 88.58%); type: functional; settings: read-out: Activity
HepG2 [18] = experiment: Induction of apoptosis in human HepG2 cells assessed as late apoptotic cells at 5 uM measured after 48 hrs by Annexin V-FITC/propidium iodide staining based flow cytometry (reference value: 4.55%); type: functional
HepG2 [19] = experiment: Inhibition of colony formation in human HepG2 cells measured after 24 hrs; type: functional, cell-based; settings: dose 1.25-20 µM, DDE = dose-dependent effect
[20] = biological target: T2, Histone-lysine N-methyltransferase EHMT1 (Homo sapiens, UniProt Q9H9B1); experiment: Inhibition of GLP (unknown origin)
T2 sequence (Q9H9B1 whole entry): T1 sequence (whole entry)

[21] = Half life in rat liver microsomes at 1 uM by LC-MS/MS analysis; type: ADME, Microsome

inhibition [3]: Active
remaining at 0.5 h, 1 µM [5]: 26.8%
inhibition [15]: Active
IC50 [20]: 0.0013 µM
half-life at 1 µM [21]: 16 min
SMILES: COc1cc2nc(N3CCN(CCCCCC(=O)NO)CC3)nc(NC3CCN(Cc4ccccc4)CC3)c2cc1OC
Activity (HepG2 [1]): 28.81%
Activity (HepG2 [2]): 0%
Activity (HepG2 [4]): 8.59%
viability at 10 µM (HepG2 [6]): 77.8%
Activity (HepG2 [7]): Dde
IC50 at 72 h [8]: 39.8 µM
viability at 20 µM (HepG2 [9]): 33.1%
Activity (HepG2 [10]): 17.12%
viability at 2.5 µM (HepG2 [11]): 87.5%
Activity [12]: Non-Toxic
Activity (HepG2 [13]): 8.83%
Activity (HepG2 [14]): 0%
Activity (HepG2 [16]): 28.84%
viability at 1.25 µM (HepG2 [17]): 88.5%
Activity (HepG2 [18]): 4.14%
inhibition (HepG2 [19]): Dde
